From US11957684B2, “Treatment of heavy menstrual bleeding associated with uterine fibroids” (Sumitomo Pharma Switzerland GmbH, priority 2016, dated 2024)
Where “and” joins values, the source holds several entries; their conditions need not be identical. Equal values may be shown once. Read-outs that look alike come from different tables or passages of the source.

Key:
women with endometriosis = assay: Example 7: bone mineral density and serum hormones; assay type: in vivo, human; details: for percent change of bone mineral density from baseline: 12 wk
Excerpt: Subjects were diagnosed with endometriosis within the 5 years before screening and had dysmenorrhea and pelvic pain, of which either 1 or both was at least “moderate” as determined by the investigator using the Biberoglu & Behrman (B&B) scale. […] Secondary endpoints included VAS score for pelvic pain, dysmenorrhea, and dyspareunia during the treatment period.

[1] = test system: endometriosis-associated pain; assay type: in vivo, human
Description: Subjects assessed and recorded their own quality of life (QOL) using the EHP-30 once a month during the study visit. As used in the examples, the VAS score was evaluated using a 100 mm scale. For pain intensity, the scale was anchored by “no pain” (score of 0) and “pain as bad as you can imagine” (score of 100). […] The above items were evaluated using a patient diary that was distributed by the sponsor. Subjects filled out the patient diary every day during the treatment period or until early termination. If taking prohibited analgesics, subjects recorded this fact in the patient diary along with the accompanying pain symptoms before use of analgesics. As used in the examples, pain during menstruation and pelvic pain unrelated to menstruation were evaluated using scores on the M-B&B and B&B. The M-B&B scores were recorded by subjects on the patient diary supplied by the sponsor. Subjects filled out the patient diary every day during the treatment period or until early termination. If taking prohibited analgesics, subjects recorded this fact in the patient diary along with the accompanying pain symptoms before use of analgesics. The investigator or subinvestigator assessed each patient's pain through interviews and filled out a B&B once a month. The items that were assessed are shown below. The M-B&B score included: dysmenorrhea (severe, moderate, mild, no pain, or no menstruation); pelvic pain (severe, moderate, mild, or no pain); deep dyspareunia (severe, moderate, mild, no pain, or no intercourse). The B&B score included: dysmenorrhea (severe, moderate, mild, none, or not applicable); dyspareunia (severe, moderate, mild, none, or not applicable); pelvic pain (severe, moderate, mild, or none); pelvic tenderness (severe, moderate, mild, or none); and induration (severe, moderate, mild, or none). As used in the examples, the EHP-30 score was obtained by subjects assessing and recording their own QOL using the EHP-30 questionnaire.

CONC(=O)Nc1ccc(-c2sc3c(c2CN(C)C)c(=O)n(-c2ccc(OC)nn2)c(=O)n3Cc2c(F)cccc2F)cc1 [Compound 1, N-(4-(1-(2,6-difluorobenzyl)-5-((dimethylamino)methyl)-3-(6-methoxy-3-pyridazinyl)-2,4-dioxo-1,2,3,4-tetrahydrothieno[2,3-d]pyrimidin-6-yl)phenyl)-N′-methoxyurea]
percent change of bone mineral density from baseline (women with endometriosis; 10 mg): −0.95±1.875%
percent change of bone mineral density from baseline (women with endometriosis; 20 mg): −1.34±2.087%
percent change of bone mineral density from baseline (women with endometriosis; 40 mg): −2.08±2.220%
week from which median serum estradiol was below LLQ (women with endometriosis; Compound 1 40 mg, leuprolide acetate 3.75 mg/4 wk): 2 Week
change from baseline in mean VAS, dysmenorrhea ([1]; 10 mg, Day 1-28): −10.657±17.0824 mm
change from baseline in mean VAS, dyspareunia ([1]; 10 mg, Day 1-28): 1.642±10.6212 mm
change from baseline in mean VAS, pelvic pain ([1]; 10 mg, Day 1-28): −4.606±7.1304 mm
mean VAS score, dysmenorrhea ([1]; 10 mg, Day 1-28): 17.556±17.0427 mm
mean VAS score, dyspareunia ([1]; 10 mg, Day 1-28): 9.608±15.4027 mm
mean VAS score, pelvic pain ([1]; 10 mg, Day 1-28): 9.988±10.3249 mm
change from baseline in mean VAS, dysmenorrhea ([1]; 10 mg, Day 57-84): −14.747±16.8648 mm
change from baseline in mean VAS, dyspareunia ([1]; 10 mg, Day 57-84): −1.033±12.2047 mm
change from baseline in mean VAS, pelvic pain ([1]; 10 mg, Day 57-84): −6.282±9.1659 mm
mean VAS score, dysmenorrhea ([1]; 10 mg, Day 57-84): 13.568±15.5954 mm
mean VAS score, dyspareunia ([1]; 10 mg, Day 57-84): 10.110±18.5404 mm
mean VAS score, pelvic pain ([1]; 10 mg, Day 57-84): 8.400±10.1329 mm
change from baseline in mean VAS, dysmenorrhea ([1]; 10 mg, Day 141-168): −15.191±17.6754 mm
change from baseline in mean VAS, dyspareunia ([1]; 10 mg, Day 141-168): −4.124±10.5641 mm
change from baseline in mean VAS, pelvic pain ([1]; 10 mg, Day 141-168): −7.872±11.2457 mm
mean VAS score, dysmenorrhea ([1]; 10 mg, Day 141-168): 11.758±15.4431 mm
mean VAS score, dyspareunia ([1]; 10 mg, Day 141-168): 5.550±11.1157 mm
mean VAS score, pelvic pain ([1]; 10 mg, Day 141-168): 6.861±9.2099 mm
change from baseline in EHP-30, control & powerlessness ([1]; 10 mg, Week 24): −13.97±17.502
change from baseline in EHP-30, emotional well-being ([1]; 10 mg, Week 24): −8.38±15.918
change from baseline in EHP-30, pain ([1]; 10 mg, Week 24): −16.98±20.286
change from baseline in EHP-30, social support ([1]; 10 mg, Week 24): −7.52±10.840
change from baseline in mean B&B score, dysmenorrhea ([1]; 10 mg, Week 24): −1.0±0.87
change from baseline in mean B&B score, dyspareunia ([1]; 10 mg, Week 24): −0.3±0.67
change from baseline in mean B&B score, pelvic pain ([1]; 10 mg, Week 24): −0.8±0.79
change from baseline in mean B&B score, pelvic tenderness ([1]; 10 mg, Week 24): −0.7±0.83
subjects without pain in B&B score, dysmenorrhea ([1]; 10 mg, Week 24): 27.8%
subjects without pain in B&B score, dyspareunia ([1]; 10 mg, Week 24): 63.9%
subjects without pain in B&B score, pelvic pain ([1]; 10 mg, Week 24): 30.4%
subjects without pain in B&B score, pelvic tenderness ([1]; 10 mg, Week 24): 35.4%
change from baseline in maximum M-B&B score, dysmenorrhea ([1]; 10 mg, end of treatment): −0.7±1.01
change from baseline in maximum M-B&B score, dyspareunia ([1]; 10 mg, end of treatment): −0.2±0.69
change from baseline in maximum M-B&B score, pelvic pain ([1]; 10 mg, end of treatment): −0.7±0.94
change from baseline in maximum VAS, dysmenorrhea ([1]; 10 mg, end of treatment): −26.4±27.37 mm
change from baseline in maximum VAS, dyspareunia ([1]; 10 mg, end of treatment): −4.2±16.30 mm
change from baseline in maximum VAS, pelvic pain ([1]; 10 mg, end of treatment): −24.0±27.54 mm
change from baseline in mean M-B&B score, deep dyspareunia ([1]; 10 mg, end of treatment): −0.171±0.4683
change from baseline in mean M-B&B score, dysmenorrhea ([1]; 10 mg, end of treatment): −0.509±0.6675
change from baseline in mean M-B&B score, pelvic pain ([1]; 10 mg, end of treatment): −0.260±0.3624
change from baseline in mean VAS, dysmenorrhea ([1]; 10 mg, end of treatment): −15.356±18.0506 mm
change from baseline in mean VAS, dyspareunia ([1]; 10 mg, end of treatment): −3.454±10.8509 mm
change from baseline in mean VAS, pelvic pain ([1]; 10 mg, end of treatment): −6.849 mm and −6.849±10.5616 mm
change from baseline in mean score of amount of bleeding (0 to 5) ([1]; 10 mg, end of treatment): −0.529±1.2185
change from baseline in proportion of days with usage of pain killer ([1]; 10 mg, end of treatment): −6.32±9.817%
change in proportion of days without pain (M-B&B), deep dyspareunia ([1]; 10 mg, end of treatment): 8.32±35.972%
change in proportion of days without pain (M-B&B), dysmenorrhea ([1]; 10 mg, end of treatment): 29.55±42.700%
change in proportion of days without pain (M-B&B), pelvic pain ([1]; 10 mg, end of treatment): 17.18±26.101%
change in proportion of days without pain (VAS), dysmenorrhea ([1]; 10 mg, end of treatment): 29.28±43.277%
change in proportion of days without pain (VAS), dyspareunia ([1]; 10 mg, end of treatment): 9.72±38.401%
change in proportion of days without pain (VAS), pelvic pain ([1]; 10 mg, end of treatment): 17.90±24.924%
mean VAS score, dyspareunia ([1]; 10 mg, end of treatment): 6.218±10.6280 mm
mean VAS score, pelvic pain ([1]; 10 mg, end of treatment): 7.746±9.0900 mm
subjects who achieved amenorrhea ([1]; 10 mg, end of treatment): 22.3%
subjects without pain in M-B&B score, dysmenorrhea ([1]; 10 mg, end of treatment): 27.2%
subjects without pain in M-B&B score, dyspareunia ([1]; 10 mg, end of treatment): 56.0%
subjects without pain in M-B&B score, pelvic pain ([1]; 10 mg, end of treatment): 24.3%
subjects without pain in VAS score, dysmenorrhea ([1]; 10 mg, end of treatment): 27.2%
subjects without pain in VAS score, dyspareunia ([1]; 10 mg, end of treatment): 48.0%
subjects without pain in VAS score, pelvic pain ([1]; 10 mg, end of treatment): 6.8% and 7%
change from baseline in mean VAS, dysmenorrhea ([1]; 20 mg, Day 1-28): −9.158±16.6375 mm
change from baseline in mean VAS, pelvic pain ([1]; 20 mg, Day 1-28): −3.962±6.6751 mm
mean VAS score, dysmenorrhea ([1]; 20 mg, Day 1-28): 18.545±19.2141 mm
mean VAS score, dyspareunia ([1]; 20 mg, Day 1-28): 10.809±15.5738 mm
mean VAS score, pelvic pain ([1]; 20 mg, Day 1-28): 11.627±14.7324 mm
change from baseline in mean VAS, dysmenorrhea ([1]; 20 mg, Day 57-84): −20.689±21.4387 mm
change from baseline in mean VAS, dyspareunia ([1]; 20 mg, Day 57-84): −0.191±10.6032 mm
change from baseline in mean VAS, pelvic pain ([1]; 20 mg, Day 57-84): −8.547±13.8568 mm
mean VAS score, dysmenorrhea ([1]; 20 mg, Day 57-84): 6.626±13.5146 mm
mean VAS score, dyspareunia ([1]; 20 mg, Day 57-84): 9.229±16.6530 mm
mean VAS score, pelvic pain ([1]; 20 mg, Day 57-84): 6.675±10.8072 mm
change from baseline in mean VAS, dysmenorrhea ([1]; 20 mg, Day 141-168): −19.860±19.1617 mm
change from baseline in mean VAS, dyspareunia ([1]; 20 mg, Day 141-168): −4.012±12.5050 mm
change from baseline in mean VAS, pelvic pain ([1]; 20 mg, Day 141-168): −8.678±10.6479 mm
mean VAS score, dysmenorrhea ([1]; 20 mg, Day 141-168): 6.132±13.2012 mm
mean VAS score, dyspareunia ([1]; 20 mg, Day 141-168): 3.806±8.9781 mm
mean VAS score, pelvic pain ([1]; 20 mg, Day 141-168): 5.486±9.1562 mm
change from baseline in EHP-30, Self-image ([1]; 20 mg, Week 24): −10.59±15.256
change from baseline in EHP-30, control & powerlessness ([1]; 20 mg, Week 24): −20.04±21.880
change from baseline in EHP-30, emotional well-being ([1]; 20 mg, Week 24): −15.37±17.858
change from baseline in EHP-30, pain ([1]; 20 mg, Week 24): −20.58±19.650
change from baseline in EHP-30, social support ([1]; 20 mg, Week 24): −13.44±17.055
change from baseline in mean B&B score, dysmenorrhea ([1]; 20 mg, Week 24): −1.5±0.94
change from baseline in mean B&B score, dyspareunia ([1]; 20 mg, Week 24): −0.4±0.70
change from baseline in mean B&B score, pelvic pain ([1]; 20 mg, Week 24): −0.9±0.85
change from baseline in mean B&B score, pelvic tenderness ([1]; 20 mg, Week 24): −0.8±0.79
subjects without pain in B&B score, dysmenorrhea ([1]; 20 mg, Week 24): 64.9%
subjects without pain in B&B score, dyspareunia ([1]; 20 mg, Week 24): 53.6%
subjects without pain in B&B score, pelvic pain ([1]; 20 mg, Week 24): 39.2%
subjects without pain in B&B score, pelvic tenderness ([1]; 20 mg, Week 24): 37.8%
change from baseline in maximum M-B&B score, dysmenorrhea ([1]; 20 mg, end of treatment): −1.4±1.12
change from baseline in maximum M-B&B score, dyspareunia ([1]; 20 mg, end of treatment): −0.3±0.59
